Data on eleven compounds can be found in patent publication US6168934A, “Oligosaccharide enzyme substrates and inhibitors: methods and compositions” (The Scripps Research Institute, priority 1998, dated 2001).

In series [1] the target is β-Glucosidase (Sweet Almond). The experiment in a line: Glycosidase inhibition, β-glucosidase (SA). The format is biochemical. The note with it: p-nitrophenyl β-D-glucoside, PIPES-NaOAc buffer pH 6.5. From the text: (§1) Materials: All of the buffers, enzymes, and substrates were purchased from Sigma and used as received. These included piperazine-N,N'-bis (2-ethanesulfonic acid) (PIPES), sodium acetate (NaOAc), ethylenediaminetetraacetic acid (EDTA), β-D-glucosidase (from sweet almond), p-nitrophenyl β-D-glucoside, p-nitrophenyl α-D-glucosidase, p-nitrophenyl α-D-glucoside, β-N-acetyl-D-glucosaminedase, p-nitrophenyl β-N-acetyl-D-glucosaminide, α-D-mannosidase and p-nitrophenyl α-D-mannoside.
(§2) (b) PIPES-NaOAc buffer (0.01 M PIPES, 0.2 M NaOAc and 0.01 mM EDTA, pH 6.5). This buffer was prepared according to the literature procedure [Dale et al., Biochemistry, 24:3530 (1985)].
(c) β-D-Glucosidase: The stock enzyme solution was prepared by dissolving 15 mg of solid protein (4 units/mg) in 1 mL PIPES-NaOAc buffer solution. This stock enzyme solution was diluted 5-fold for the enzymatic assay.
(§3) (g) Substrate solutions: all substrates were dissolved in the corresponding buffer solution for enzymatic assay.
(§4) For each inhibitor, five inhibitor concentrations, ranging from zero to three times Ki, were generally used to determine the Ki value. […] The amount of enzyme added in each assay was adjusted so that less than 10 percent of the substrate, with its lowest substrate concentration, would be consumed within 45 seconds. Since all of the substrates have p-nitrophenol as leaving group, the assays were monitored at 400 nanometers (nm), where the molecular extinction coefficient, ε, was calibrated to be 3204.5 M^-1 cm^-1 at pH 6.5. The following illustrates the detailed procedure.
To a 1 mL disposable cuvette were added 950 microliters (μL) of the NaOAc-PIPES buffer solution, 20 μL of the inhibitor solution and 20 μL of the p-nitrophenyl β-D-glucoside solution (100 mM in PIPES-NaOAc buffer, pH 6.5). The solution was well mixed and 20 μL of the β-D-glucosidase solution were injected into the cuvette to start the reaction. The reaction was monitored at 400 nm on a Beckman DU-70 photospectrometer for 45 seconds and the initial hydrolysis rate was calculated. […]

In series [2] the target is α-Glucosidase (Brewer's Yeast). The series can be described thus: Glycosidase inhibition, α-glucosidase (BY). The note with it: p-nitrophenyl α-D-glucoside, PIPES-NaOAc buffer pH 6.5. The class given is biochemical.
Description: as §1, §2
(d) α-D-Glucosidase: 1.5 mg of solid protein (70 units/mg) were dissolved in 1 mL PIPES-NaOAc buffer solution and used for assays without further dilution.
as §3, §4
To a 1 mL disposable cuvette were added 950 microliters (μL) of the NaOAc-PIPES buffer solution, 20 μL of the inhibitor solution and 20 μL of the p-nitrophenyl β-D-glucoside solution (100 mM in PIPES-NaOAc buffer, pH 6.5). The solution was well mixed and 20 μL of the β-D-glucosidase solution were injected into the cuvette to start the reaction. The reaction was monitored at 400 nm on a Beckman DU-70 photospectrometer for 45 seconds and the initial hydrolysis rate was calculated. The same procedure was repeated with five other substrate concentrations. […]

Series [3] addresses T1, fucosyl α1,3/1,4 transferase (FucT; EC 2.4.1.65), recombinant (Homo sapiens, UniProt P21217).
T1 construct: gift of Dr. J. B. Lowe, University of Michigan
T1 sequence (P21217 1-361): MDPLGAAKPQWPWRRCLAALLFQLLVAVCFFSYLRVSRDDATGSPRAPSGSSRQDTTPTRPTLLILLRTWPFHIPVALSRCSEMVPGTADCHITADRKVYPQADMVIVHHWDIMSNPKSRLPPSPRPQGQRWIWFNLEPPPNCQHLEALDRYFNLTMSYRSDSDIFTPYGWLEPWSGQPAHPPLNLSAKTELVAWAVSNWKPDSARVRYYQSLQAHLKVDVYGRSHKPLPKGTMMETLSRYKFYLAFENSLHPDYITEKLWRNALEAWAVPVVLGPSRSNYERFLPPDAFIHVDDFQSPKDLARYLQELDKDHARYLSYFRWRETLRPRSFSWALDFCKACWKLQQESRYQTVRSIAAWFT
The series can be described thus: Fucosyltransferase inhibition studies (IC50). The class given is biochemical. The note with it: 2 mM N-acetyllactosamine; for inhibitory effect: up to concentrations of 50 mg/mL. How it is done: For other studies, such as those using a recombinant fucosylα1,3/4transferase (EC 2.4.1.65) whose results are shown in Table 1a, a stock mixture containing 0.25 mM ^14 C-GDP-fucose (5000 cpm/μL), 6.25 mM ATP, 25 mM MnCl2 are 62.5 mM cacodylate buffer, pH 6.2, was admixed fresh on the day of use, and stored on ice. To that solution, Fuc T was added immediately before use, and the reaction was initiated by the combination of 16 μL of that mixture with 4 μL of 100 mM acceptor substrate. The resulting admixture was then incubated at 37° C. for 30-240 minutes, depending upon the acceptor substrate (reactant compound) under study.
In this equation, m=slope and b=y-intercept.
Percent inhibition=m([inhibitor])+b equation 2

The target of series [4] is β-galactosidase (EC 3.2.1.23 from E. coli) (Escherichia coli, UniProt P00722). The series can be described thus: Inhibition of β-galactosidase hydrolysis of p-nitrophenyl β-galactoside. The format is biochemical. The note with it: p-nitrophenyl β-galactoside hydrolysed at the same rate with and without azasugar; concentration not given. An excerpt:
Not all of the monosaccharide acceptors of the present invention are suitable substrates for β-galactosidase. For example, when Compound 3 or 4 from Table 2 are used as a substrate, no product was obtained.

Series [5] concerns the target E. coli CMP-sialic acid synthetase (CMP-NeuAc synthetase, EC 2.7.7.43), native enzyme (Escherichia coli O18:K1:H7, UniProt P13266). The series can be described thus: Kinetic studies of native CMP-NeuAc synthetase. Conditions: pH 9.0, 37° C.
Description: (§9) The activity of the native or the modified CMP-NeuAc synthetase was assayed using a thiobarbituric acid method described by Vann et al., J. Biol. Chem., 262:17556 (1987). […] After the mixture was incubated at 37° C. for 30 minutes, 50 mL of 1.6 M NaBH4 was added to destroy excess NeuAc, and the mixture was heated at room temperature for an additional 15 minutes. The mixture was then put in the ice bath and 50 mL of H3 PO4 were added to destroy NaBH4.
(§10) The resulting mixture was kept at zero degrees C for five minutes then incubated at 37° C. for 10 minutes to cleave the phosphoester bond of the formed CMP-NeuAc. The free NeuAc was oxidized with 50 mL of 0.2 M NaIO4 at room temperature for 10 minutes, and 400 mL of 4 percent NaAsO2 in 0.5 N HCl were added. […] After the solution was cooled, 1 mL of the solution was taken out and mixed with 1 mL of cyclohexanone. That mixture was shaken and centrifuged, and the upper layer was taken for measurement at 549 nm (e=4.11 mM^-1 cm^-1).
(§11) where A is [CTP], B is [NeuAc], Ka and Kb are the Michaelis constants for CTP and NeuAc, respectively, and Kia is the dissociation constant (or inhibition constant) for CTP.
Series [6] has as its system Nc1ccn([C@@H]2O[C@H](COP(=O)(O)OP(=O)(O)OP(=O)(O)O)[C@@H](O)[C@H]2O)c(=O)n1. The experiment in a line: purified protein, by the assay type. Conditions: other: pH 9.0, 37° C.
Description: as §9, §10, §11
The test system of series [7] is CC(=O)N[C@H]1[C@H]([C@H](O)[C@H](O)CO)OC(O)(C(=O)O)C[C@@H]1O. The series can be described thus: Kinetic studies of modified (tagged) CMP-NeuAc synthetase. The format is biochemical, E. coli. The note with it: other: pH 9.0, 37° C. How it is done: (§5) The construction of plasmid CMPSIL-1, which contains the modified CMP-NeuAc synthetase gene (Example 2), was accomplished by the method of Ichikawa et al., J. Am. Chem. Soc., 113:4698 (1991). The CMP-NeuAc synthetase gene was fused with the decapeptide tag sequence Tyr-Pre-[…](SEQ ID NO:3) at the C-terminus, cloned into a lambda ZAP™ vector at EcoRI and XbaI sites and overexpressed in E. coli Sure strain.
(§6) The activity of the native or the modified CMP-NeuAc synthetase was assayed using a thiobarbituric acid method described by Vann et al., J. Biol. Chem., 262:17556 (1987). Briefly, the enzyme was added to a […] buffer containing 5.5 mM CTP, 2.8 mM N-acetylneuraminic acid, 0.2 M Tris, 20 mM MgCl2 and 0.2 mM DTT, pH 9.0, to form a mixture. After the mixture was incubated at 37° C. for 30 minutes, 50 mL of 1.6 M NaBH4 was added to destroy excess NeuAc, and the mixture was heated at room temperature for an additional 15 minutes. The mixture was then put in the ice bath and 50 mL of H3 PO4 were added to destroy NaBH4.
(§7) The resulting mixture was kept at zero degrees C for five minutes then incubated at 37° C. for 10 minutes to cleave the phosphoester bond of the formed CMP-NeuAc. The free NeuAc was oxidized with 50 mL of 0.2 M NaIO4 at room temperature for 10 minutes, and 400 mL of 4 percent NaAsO2 in 0.5 N HCl were added. The solution mixture was the transferred to a test tube containing 1 mL of 0.6 percent thiobarbituric acid in 0.5 M Na2 SO4, and heated in boiled water for 15 minutes. After the solution was cooled, 1 mL of the solution was taken out and mixed with 1 mL of cyclohexanone. That mixture was shaken and centrifuged, and the upper layer was taken for measurement at 549 nm (e=4.11 mM^-1 cm^-1).
(§8) Initial velocities were measured at various concentrations of CTP (1.25-5 mM) and NeuAc (2-8 mM) for kinetic studies. The data were fitted into the sequential bi-bi substrate rate equation 3, shown below, to derive the Michaelis constants and maximum velocity (V) using a Sigma plot program from Sigma Co. [formula] […]

Series [8] relates to Nc1ccn([C@@H]2O[C@H](COP(=O)(O)OP(=O)(O)OP(=O)(O)O)[C@@H](O)[C@H]2O)c(=O)n1. The description is as above. The format is biochemical, E. coli. The note with it: other: pH 9.0, 37° C. The procedure: as §5, §6, §7, §8

β-galactosidase (EC 3.2.1.23 from E. coli), sequence (P00722 2-1024): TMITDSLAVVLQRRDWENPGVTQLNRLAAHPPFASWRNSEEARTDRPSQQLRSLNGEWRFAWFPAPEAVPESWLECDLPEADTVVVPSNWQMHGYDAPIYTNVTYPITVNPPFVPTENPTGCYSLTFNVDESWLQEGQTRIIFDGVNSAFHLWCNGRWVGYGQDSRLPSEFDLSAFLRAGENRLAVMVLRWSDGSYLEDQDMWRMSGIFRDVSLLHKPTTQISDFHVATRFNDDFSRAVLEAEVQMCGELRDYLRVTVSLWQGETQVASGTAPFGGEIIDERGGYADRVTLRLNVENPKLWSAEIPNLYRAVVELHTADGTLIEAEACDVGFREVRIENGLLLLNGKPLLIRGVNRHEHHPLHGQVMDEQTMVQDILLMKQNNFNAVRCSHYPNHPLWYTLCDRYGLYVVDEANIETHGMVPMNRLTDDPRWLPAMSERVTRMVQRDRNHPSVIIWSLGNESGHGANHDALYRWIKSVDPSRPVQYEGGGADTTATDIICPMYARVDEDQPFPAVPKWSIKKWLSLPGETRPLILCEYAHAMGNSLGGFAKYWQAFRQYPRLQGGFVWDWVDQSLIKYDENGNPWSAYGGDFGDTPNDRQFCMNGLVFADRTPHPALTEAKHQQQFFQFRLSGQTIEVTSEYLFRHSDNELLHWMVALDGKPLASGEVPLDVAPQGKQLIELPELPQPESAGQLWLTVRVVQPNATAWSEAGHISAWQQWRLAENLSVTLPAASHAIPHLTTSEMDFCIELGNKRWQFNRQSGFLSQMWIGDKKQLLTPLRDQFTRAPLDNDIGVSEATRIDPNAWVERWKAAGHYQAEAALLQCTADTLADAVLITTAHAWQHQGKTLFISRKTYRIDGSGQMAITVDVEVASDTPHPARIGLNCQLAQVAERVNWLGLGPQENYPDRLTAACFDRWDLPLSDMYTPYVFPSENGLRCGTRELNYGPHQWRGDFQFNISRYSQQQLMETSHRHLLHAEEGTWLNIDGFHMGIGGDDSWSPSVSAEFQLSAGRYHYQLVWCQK
E. coli CMP-sialic acid synthetase (CMP-NeuAc synthetase, EC 2.7.7.43), native enzyme, sequence (P13266 whole entry): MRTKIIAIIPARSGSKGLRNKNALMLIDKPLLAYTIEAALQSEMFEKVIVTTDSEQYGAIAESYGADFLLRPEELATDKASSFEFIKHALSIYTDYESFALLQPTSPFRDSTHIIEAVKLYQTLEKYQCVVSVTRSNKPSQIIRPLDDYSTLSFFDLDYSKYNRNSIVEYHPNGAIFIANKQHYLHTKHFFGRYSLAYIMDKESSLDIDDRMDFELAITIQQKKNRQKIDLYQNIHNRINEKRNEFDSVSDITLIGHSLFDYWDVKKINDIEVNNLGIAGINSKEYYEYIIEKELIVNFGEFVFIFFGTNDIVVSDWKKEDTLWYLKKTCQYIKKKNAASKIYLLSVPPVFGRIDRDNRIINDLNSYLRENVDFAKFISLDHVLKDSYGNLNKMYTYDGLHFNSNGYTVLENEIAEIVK

In the case of `C[C@H]1NC[C@H](O)[C@@H](O)[C@@H]1O` [Compound 103c, (2R)-methyl-(3R,4R,5S)-trihydroxypiperidine], the figures for the inhibition constant (Ki) in series [1] and in series [2] were 780 µM and 1560 µM, respectively.
On the same counts, the results for `C[C@@H]1[C@@H](O)[C@H](O)[C@@H](O)CN1C` [Compound 117, (1,2R)-dimethyl-(3R,4R,5S)-trihydroxypiperidine] are 140 µM and 1780 µM.
For `OC[C@H]1O[C@@H](O[C@H]2[C@H](O)C=CO[C@@H]2CO)[C@H](O)[C@@H](O)[C@H]1O` [Compound 8, P-D-Galactopyranosyl-(1,4)-D-glucal], in series [3], the inhibitory effect entry is “did not exhibit any inhibitory effect”.
`OC[C@H]1NC[C@H](O)[C@@H](O)[C@@H]1O[C@@H]1O[C@H](CO)[C@H](O)[C@H](O)[C@H]1O` [Compound 10a, 6-D-Galactopyranosyl-(1,4) -deoxynojirimycin]: the half-inhibitory concentration (IC50) in series [3] (Example 8) was roughly 40000 µM; in series [3] (Table 1a, 14C-GDP-fucose, pH 6.2, 37° C., IC50 extrapolated from linear fit), 40000 µM.
In the case of `C[C@@H]1[C@@H](O)[C@H](O)[C@@H](O)C[N@+]1(C)[O-]` [Compound 118, (1,2R)-dimethyl-(3R,4R,5S)-trihydroxypiperidine oxide], the Ki in series [1] is 1490 µM; in series [2] it was 6950 µM.
As for `C[C@H]1NC[C@H](O)[C@@H](O)[C@@H]1O` [Compound 4], in series [4], the “inhibition of β-galactosidase” value was “Neither azasugar was an inhibitor”.
With `C=CCO[C@@H]1O[C@H](CO)[C@@H](O[C@@H]2O[C@H](CO)[C@H](O)[C@H](O)[C@H]2O)C[C@H]1NC(C)=O` [Compound 2i, Allyl β-D-galactopyranosyl-(1,4)-2-acetamido-2,3-dideoxy-β-D-glucopyranoside], the inhibitory effect result in series [3] is reported as “did not exhibit any inhibitory effect”.
With `OC[C@H]1NC[C@H](O)[C@@H](O)[C@@H]1O` [Compound 3], in series [4], the “inhibition of β-galactosidase” value is given as “Neither azasugar was an inhibitor”.
`CC(=O)N[C@H]1[C@H]([C@H](O)[C@H](O)CO)OC(O)(C(=O)O)C[C@@H]1O` (stereo partly drawn) [NeuAc, N-acetylneuraminic acid]: the Km in series [5] (read-out: Km for NeuAc) came out at 4 mM. In addition, the kcat in series [5] (substrates NeuAc and CTP) came out at 1.8 s⁻¹.
On to “E. coli CMP-sialic acid synthetase (CMP-NeuAc synthetase, EC 2.7.7.43), native enzyme (Escherichia coli RS218)”, for which the Michaelis constant (Km) in series [6] is 0.31 mM.
“E. coli CMP-sialic acid synthetase (CMP-NeuAc synthetase, EC 2.7.7.43), modified (tagged) enzyme with C-terminal decapeptide tag, SEQ ID NO:3 (Escherichia coli RS218)”: in series [7], the Michaelis constant (Km) is 4.8 mM and the catalytic constant (kcat) was 1.9 s⁻¹. In addition, the Km in series [8] was found to be 1.99 mM.

What is called Ki is a dissociation constant, usually derived from enzyme kinetics or from competition with a known ligand. Read a low Ki as a stronger hold on the target. One may read the IC50 as the concentration at which inhibition is half-maximal. As usually defined, the Km is the concentration of substrate that gives half-maximal velocity. Usually kcat stands for the number of substrate molecules converted per active site and unit of time at saturation.
